Measurements as given in patent US6509337B1, “Arylsulfonyl Hydroxamic Acid derivatives as MMP and TNF inhibitors” (Pfizer Inc., priority 1997, dated 2003).

melting point: 151 to 154 °C (dec.)
SMILES: COc1ccc(S(=O)(=O)N2CC=CC(c3ccccc3)C2C(=O)NO)cc1 (stereo not shown) [Example 2, N-hydroxy-1-(4-methoxybenzenesulfonyl)-3-phenyl-1,2,3,6-tetrahydropyridine-2-carboxamide]
